Measurements published in US7544694B2, “Substituted diaza-spiro-[5.5]-undecane derivatives and their use as neurokinin antagonists” (Janssen Pharmaceutica N.V., priority 2004, dated 2009).

What was measured:
Format in all cases: cell-based
[1] = biological target: T1, NK3 (Homo sapiens, UniProt P29371); assay: Signal transduction (ST), intracellular Ca++ (FLIPR), NK3; details: antagonist, read-out: NK3 pIC50 (converted)
T1 sequence (P29371 1-465): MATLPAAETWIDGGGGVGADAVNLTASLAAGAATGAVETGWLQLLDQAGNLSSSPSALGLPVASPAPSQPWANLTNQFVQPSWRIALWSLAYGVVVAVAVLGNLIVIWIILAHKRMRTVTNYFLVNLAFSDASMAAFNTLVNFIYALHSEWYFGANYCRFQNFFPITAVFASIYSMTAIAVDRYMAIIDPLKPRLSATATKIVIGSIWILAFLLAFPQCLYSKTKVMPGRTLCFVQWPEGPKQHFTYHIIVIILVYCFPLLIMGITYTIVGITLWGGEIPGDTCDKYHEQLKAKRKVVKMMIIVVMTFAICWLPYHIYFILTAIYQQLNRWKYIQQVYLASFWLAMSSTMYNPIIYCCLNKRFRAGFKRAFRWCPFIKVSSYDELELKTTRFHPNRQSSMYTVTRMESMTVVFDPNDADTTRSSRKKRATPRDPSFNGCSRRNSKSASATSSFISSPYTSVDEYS

[2] = biological target: NK1 (Homo sapiens, UniProt P25103); assay: Signal transduction (ST), intracellular Ca++ (FLIPR), functional NK1 antagonistic activity; details: antagonist, read-out: NK1 pIC50 (converted)
Chain of NK1 (P25103 whole entry): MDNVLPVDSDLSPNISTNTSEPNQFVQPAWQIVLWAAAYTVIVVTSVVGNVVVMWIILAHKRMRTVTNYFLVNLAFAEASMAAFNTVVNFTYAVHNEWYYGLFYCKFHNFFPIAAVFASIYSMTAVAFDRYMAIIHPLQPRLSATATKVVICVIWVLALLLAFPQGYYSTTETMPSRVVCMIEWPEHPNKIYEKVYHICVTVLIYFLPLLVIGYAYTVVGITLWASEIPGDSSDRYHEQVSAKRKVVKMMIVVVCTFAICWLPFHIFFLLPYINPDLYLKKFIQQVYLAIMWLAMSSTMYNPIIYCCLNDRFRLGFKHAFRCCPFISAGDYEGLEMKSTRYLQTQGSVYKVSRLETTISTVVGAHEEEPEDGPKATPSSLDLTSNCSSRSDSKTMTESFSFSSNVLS
Summary of the method: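 Confluent cells were loaded with 2 μM Fluo3 for 1 h at 37° C, then washed into Krebs buffer pH 7.4 with 1.25 mM CaCl2 and 2.5 mM probenecid. Antagonists were preincubated 20 min at RT before agonist addition. Peak Ca++ transients were read by FLIPR, with EC50 or IC50 from sigmoidal non-linear regression.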

[3] = biological target: T2, NK2 (Homo sapiens, UniProt P21452); assay: Signal transduction (ST), intracellular Ca++ (FLIPR), NK2; details: antagonist, read-out: NK2 pIC50 (converted)
T2 sequence (P21452 1-398): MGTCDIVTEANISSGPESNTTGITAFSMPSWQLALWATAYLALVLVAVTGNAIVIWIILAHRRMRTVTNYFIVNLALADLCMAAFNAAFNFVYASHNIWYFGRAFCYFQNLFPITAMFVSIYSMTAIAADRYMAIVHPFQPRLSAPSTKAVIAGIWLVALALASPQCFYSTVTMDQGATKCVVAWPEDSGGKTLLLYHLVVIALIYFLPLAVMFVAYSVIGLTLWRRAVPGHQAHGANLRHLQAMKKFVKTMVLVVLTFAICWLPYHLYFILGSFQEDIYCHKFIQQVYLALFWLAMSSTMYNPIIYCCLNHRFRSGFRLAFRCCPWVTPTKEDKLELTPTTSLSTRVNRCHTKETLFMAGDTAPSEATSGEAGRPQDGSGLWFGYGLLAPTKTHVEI

IC50 [1] [nM]	IC50 [2] [nM]	IC50 [3] [nM]	Structure (SMILES)
7080	41.7	5890	O=C(c1ccsc1)N1CCC2(CC1)CCN([C@H]1CCN(C(=O)c3cc(C(F)(F)F)cc(C(F)(F)F)c3)[C@H](Cc3ccc(F)c(F)c3)C1)CC2 [Compound 141]
1950	56.2	2040	CC(C)S(=O)(=O)N1CCC2(CCN([C@H]3CCN(C(=O)c4cc(C(F)(F)F)cc(C(F)(F)F)c4)[C@H](Cc4ccccc4)C3)CC2)CC1 [Compound 167]
5750	93.3	6920	O=C(C1CC1)N1CCCC2(CCN([C@H]3CCN(C(=O)c4cc(C(F)(F)F)cc(C(F)(F)F)c4)[C@H](Cc4ccccc4)C3)CC2)C1 [Compound 172]
> 10000	30.9	~1620	O=C(C1CC1)N1CCCC2(CCN([C@@H]3CCN(C(=O)c4cc(C(F)(F)F)cc(C(F)(F)F)c4)[C@H](Cc4ccccc4)C3)CC2)C1 [Compound 173]
> 10000	40.7	6920	O=C(C1CCOC1)N1CCCC2(CCN([C@H]3CCN(C(=O)c4cc(C(F)(F)F)cc(C(F)(F)F)c4)[C@H](Cc4ccccc4)C3)CC2)C1 (stereo partly drawn) [Compound 174]
> 10000	15.5	4470	O=C(c1ccsc1)N1CCCC2(CCN([C@H]3CCN(C(=O)c4cc(C(F)(F)F)cc(C(F)(F)F)c4)[C@H](Cc4ccccc4)C3)CC2)C1 [Compound 175]
> 10000	72.4	~6460	O=C(c1ccco1)N1CCCC2(CCN([C@H]3CCN(C(=O)c4cc(C(F)(F)F)cc(C(F)(F)F)c4)[C@H](Cc4ccccc4)C3)CC2)C1 [Compound 176]
> 10000	437	4900	O=C(c1cc(C(F)(F)F)cc(C(F)(F)F)c1)N1CC[C@H](CN2CCC3(CCN(Cc4ccccc4)CC3)CC2)C[C@H]1Cc1ccccc1 [Compound 178]
> 10000	58.9	> 10000	O=C(C1CC1)N1CCC2(CCN(C[C@H]3CCN(C(=O)c4cc(C(F)(F)F)cc(C(F)(F)F)c4)[C@H](Cc4ccccc4)C3)CC2)CC1 [Compound 179]
> 10000	14.8	8320	O=C(C1CCOC1)N1CCC2(CCN(C[C@H]3CCN(C(=O)c4cc(C(F)(F)F)cc(C(F)(F)F)c4)[C@H](Cc4ccccc4)C3)CC2)CC1 (stereo partly drawn) [Compound 180]

The next lines start with the compound.

Structure (SMILES)	IC50 [1] [nM]	IC50 [2] [nM]	IC50 [3] [nM]
O=C(c1cc(C(F)(F)F)cc(C(F)(F)F)c1)N1CC[C@H](N2CCC3(CC2)CCN(S(=O)(=O)c2cc(Cl)c(Cl)cc2Cl)CC3)C[C@H]1Cc1ccccc1 [Compound 115]	> 10000	490	> 10000
O=C(c1cc(C(F)(F)F)cc(C(F)(F)F)c1)N1CC[C@H](N2CCC3(CC2)CCN(S(=O)(=O)c2ccc(F)cc2)CC3)C[C@H]1Cc1ccccc1 [Compound 116]	708	52.5	> 10000
O=C(c1cc(C(F)(F)F)cc(C(F)(F)F)c1)N1CC[C@H](N2CCC3(CC2)CCN(S(=O)(=O)c2ccc(C(F)(F)F)cc2)CC3)C[C@H]1Cc1ccccc1 [Compound 117]	> 10000	447	> 10000
N#Cc1ccc(S(=O)(=O)N2CCC3(CCN(C4CCN(C(=O)c5cc(C(F)(F)F)cc(C(F)(F)F)c5)C(Cc5ccccc5)C4)CC3)CC2)cc1 (stereo not drawn) [Compound 119]	1580	66.1	1070
COc1ccc(S(=O)(=O)N2CCC3(CCN([C@H]4CCN(C(=O)c5cc(C(F)(F)F)cc(C(F)(F)F)c5)[C@H](Cc5ccccc5)C4)CC3)CC2)cc1 [Compound 121]	3720	112	1200
COc1ccc(S(=O)(=O)N2CCC3(CCN([C@H]4CCN(C(=O)c5cc(C(F)(F)F)cc(C(F)(F)F)c5)[C@H](Cc5ccccc5)C4)CC3)CC2)cc1OC [Compound 122]	> 10000	44.7	3980
COc1ccc(OC)c(S(=O)(=O)N2CCC3(CCN([C@H]4CCN(C(=O)c5cc(C(F)(F)F)cc(C(F)(F)F)c5)[C@H](Cc5ccccc5)C4)CC3)CC2)c1 [Compound 123]	> 10000	70.8	~4070
CC(=O)Nc1ccc(S(=O)(=O)N2CCC3(CCN([C@H]4CCN(C(=O)c5cc(C(F)(F)F)cc(C(F)(F)F)c5)[C@H](Cc5ccccc5)C4)CC3)CC2)cc1 [Compound 124]	1780	23.4	~2570
CS(=O)(=O)c1ccccc1S(=O)(=O)N1CCC2(CCN([C@H]3CCN(C(=O)c4cc(C(F)(F)F)cc(C(F)(F)F)c4)[C@H](Cc4ccccc4)C3)CC2)CC1 [Compound 125]	6920	158	5130
O=C(c1cc(C(F)(F)F)cc(C(F)(F)F)c1)N1CC[C@H](N2CCC3(CC2)CCN(S(=O)(=O)Cc2ccccc2)CC3)C[C@H]1Cc1ccccc1 [Compound 126]	3980	33.1	3390
O=C(c1cc(C(F)(F)F)cc(C(F)(F)F)c1)N1CC[C@H](N2CCC3(CC2)CCN(S(=O)(=O)Cc2cccc(Cl)c2)CC3)C[C@H]1Cc1ccccc1 [Compound 127]	> 10000	263	4680
O=C(c1cc(C(F)(F)F)cc(C(F)(F)F)c1)N1CC[C@H](N2CCC3(CC2)CCN(S(=O)(=O)C=Cc2ccccc2)CC3)C[C@H]1Cc1ccccc1 [Compound 128]	> 10000	562	5370
O=C(C1CC1)N1CCC2(CC1)CCN([C@H]1CCN(C(=O)c3cc(C(F)(F)F)cc(C(F)(F)F)c3)[C@H](Cc3ccc(Cl)c(Cl)c3)C1)CC2 [Compound 131]	1410	17.4	776
O=C(C1CCOC1)N1CCC2(CC1)CCN([C@H]1CCN(C(=O)c3cc(C(F)(F)F)cc(C(F)(F)F)c3)[C@H](Cc3ccc(Cl)c(Cl)c3)C1)CC2 (stereo partly drawn) [Compound 132]	912	9.55	1700
O=C(c1ccsc1)N1CCC2(CC1)CCN([C@H]1CCN(C(=O)c3cc(C(F)(F)F)cc(C(F)(F)F)c3)[C@H](Cc3ccc(Cl)c(Cl)c3)C1)CC2 [Compound 133]	4900	53.7	3720
O=C(C1CC1)N1CCC2(CC1)CCN([C@H]1CCN(C(=O)c3cc(C(F)(F)F)cc(C(F)(F)F)c3)[C@H](Cc3ccc(F)c(F)c3)C1)CC2 [Compound 136]	692	17	2000
O=C(C1CCOC1)N1CCC2(CC1)CCN([C@H]1CCN(C(=O)c3cc(C(F)(F)F)cc(C(F)(F)F)c3)[C@H](Cc3ccc(F)c(F)c3)C1)CC2 (stereo partly drawn) [Compound 137]	1700	27.5	3470
CC1(C)OC(=O)CC1C(=O)N1CCC2(CC1)CCN([C@H]1CCN(C(=O)c3cc(C(F)(F)F)cc(C(F)(F)F)c3)[C@H](Cc3ccc(F)c(F)c3)C1)CC2 (stereo partly drawn) [Compound 138]	> 10000	17.8	4680
O=C1CCC(C(=O)N2CCC3(CC2)CCN([C@H]2CCN(C(=O)c4cc(C(F)(F)F)cc(C(F)(F)F)c4)[C@H](Cc4ccc(F)c(F)c4)C2)CC3)N1 (stereo partly drawn) [Compound 139]	955	38.9	2400
O=C(c1ccoc1)N1CCC2(CC1)CCN([C@H]1CCN(C(=O)c3cc(C(F)(F)F)cc(C(F)(F)F)c3)[C@H](Cc3ccc(F)c(F)c3)C1)CC2 [Compound 140]	2450	23.4	3470
